Patent publication US11897931B2, “MANP analogues” (Mayo Foundation for Medical Education and Research, priority 2016, dated 2024)
Read-outs that look alike come from different tables or passages of the source. Bridges are numbered along the chain shown (N, C = ends). Where no end group is shown, it is not given here. [ ]: non-standard residue; d: D form.

What was measured:
normal dogs = settings: cited from earlier work
[1] = tested on: Spontaneously hypertensive rats (SHRs); experiment: Acute IV MANP in spontaneously hypertensive rats: BP, plasma and urinary cGMP, natriuresis; assay type: in vivo, rat; settings: acute IV administration
Protocol: FIGS. 2A-2E are a series of graphs plotting the effect of MANP, administered intravenously at the indicated doses, on mean arterial pressure (FIG. 2A), cGMP levels in plasma (FIG. 2B) and urine (FIG. 2C), distal tubule sodium reabsorption (FIG. 2D), and urinary sodium excretion (FIG. 2E) in spontaneously hypertensive rats.
Spontaneously hypertensive rats (SHRs) were injected with intravenous (IV) MANP or vehicle, and BP, plasma and urinary cGMP, and natriuretic effects were determined.

pGC-A = target: T1, pGC-A (Homo sapiens, UniProt P16066); experiment: cGMP generation in HEK293 cells overexpressing pGC-A; assay type: cell-based
T1 construct: host or cells: HEK293
T1 sequence (P16066 33-1061): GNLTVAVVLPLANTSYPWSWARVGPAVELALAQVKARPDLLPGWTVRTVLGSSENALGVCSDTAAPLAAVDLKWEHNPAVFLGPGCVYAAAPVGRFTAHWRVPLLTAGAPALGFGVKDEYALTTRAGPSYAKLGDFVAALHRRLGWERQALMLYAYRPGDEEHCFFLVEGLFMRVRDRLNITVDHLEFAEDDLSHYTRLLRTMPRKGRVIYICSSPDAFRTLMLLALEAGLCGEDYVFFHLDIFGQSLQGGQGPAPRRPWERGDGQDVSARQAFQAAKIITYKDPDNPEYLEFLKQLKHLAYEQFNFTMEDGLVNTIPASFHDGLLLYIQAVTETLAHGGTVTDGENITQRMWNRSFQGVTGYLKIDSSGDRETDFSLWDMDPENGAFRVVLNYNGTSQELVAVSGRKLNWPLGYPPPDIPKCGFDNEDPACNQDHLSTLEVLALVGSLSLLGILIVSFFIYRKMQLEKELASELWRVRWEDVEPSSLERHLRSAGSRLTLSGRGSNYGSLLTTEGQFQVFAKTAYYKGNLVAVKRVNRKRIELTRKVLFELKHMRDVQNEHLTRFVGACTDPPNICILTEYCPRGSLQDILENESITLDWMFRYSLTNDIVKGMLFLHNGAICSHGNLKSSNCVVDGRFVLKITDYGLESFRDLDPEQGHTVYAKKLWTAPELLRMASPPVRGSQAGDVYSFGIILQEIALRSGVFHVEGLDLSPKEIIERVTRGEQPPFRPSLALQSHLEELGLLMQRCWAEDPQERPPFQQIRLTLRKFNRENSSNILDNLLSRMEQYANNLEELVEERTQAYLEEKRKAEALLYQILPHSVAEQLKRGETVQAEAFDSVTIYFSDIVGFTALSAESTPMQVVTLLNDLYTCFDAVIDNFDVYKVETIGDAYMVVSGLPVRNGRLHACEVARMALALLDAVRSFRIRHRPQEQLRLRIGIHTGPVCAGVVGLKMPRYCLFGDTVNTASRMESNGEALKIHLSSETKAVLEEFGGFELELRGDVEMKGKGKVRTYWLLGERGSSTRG
Protocol: For in vitro studies, five MANP variants were generated that contained substitutions within the N-terminal region. HEK293 cells overexpressing pGC-A were stimulated with MANP or the five variants (10^−8 M), and intracellular cGMP generation was measured.
(§1) Additional in vitro experiments were conducted using an MANP variant having a tryptophan substitution for the leucine at position 2 of MANP (SWLRRSSCFGGRMDRI GAQSGLGCNSFRYRITA REDKQGWA; SEQ ID NO:15). Human pGC-A and pGC-B cDNA clones were purchased from Origene (Rockville, Md.). HEK293 cells were stably transfected with pGC-A or pGC-B cDNA using LIPOFECTAMINE® (Invitrogen; Grand Island, N.Y.). Transfected cells were maintained in Dulbecco's modified Eagle's medium supplemented with 10% fetal bovine serum, 100 U/ml penicillin, 100 […], and 250 ug/ml G418, and were plated in 6-well plates. pGC-A-transfected cells were treated with MANP or MANP2W, while pGC-B-transfected cells were treated with CNP or MANP2W. Cells were incubated in Hank's balanced salt solution (Invitrogen; Carlsbad, Calif.) containing 20 mmol/LN42-hydroxyethyllpiperazine-N′[2-ethanesulfonic acid], 0.1% bovine serum albumin, and 0.5 mmol/L 3-isobutyl-1-methylzanthine (Sigma; St. Louis, Mo.). Treated cells received 10^−6 M, 10^−8 M, or 10^−10 M of MANP, CNP, or MANP2W peptide for 10 minutes. […]

normal canine = experiment: In vivo MANP18 infusion study in a normal canine; settings: normal dog
Protocol: FIGS. 5A-5G are graphs plotting the effect of MANP18 on mean arterial pressure (MAP; FIG. 5A), heart rate (FIG. 5B), pulmonary wedge capillary pressure (PWCP; FIG. 5C), cardiac output (FIG. 5D), renal blood flow (FIG. 5E), urine output (UV; FIG. 5F), and urinary sodium excretion (UNaV; FIG. 5G) in a normal dog. After a baseline (BL) clearance, MANP18 was infused with saline for a total of 45 minutes, which included a 15-minute lead-in period followed by a 30-minute clearance. After the peptide infusion was discontinued, and four, 30-minute clearances were performed [washout (Wo), recovery 1 (Rec1), recovery 2 (Rec2), and recovery 3 (Rec3)].
FIGS. 6A-6G are graphs plotting the effect of MANP18 on plasma cGMP levels (FIG. 6A), urinary cGMP excretion (FIG. 6B), plasma ANP levels (FIG. 6C), urinary ANP excretion (FIG. 6D), plasma aldosterone levels (FIG. 6E), plasma renin activity (PRA; FIG. 6F), and plasma angiotensin II levels (ANGII; FIG. 6G) in a normal dog. Experiments were conducted as described for FIGS. 5A-5G).
In vivo infusion studies were conducted using MANP18 in a normal canine. The night before the study, the dog was fasted. On the day of the experiment, the dog was anesthetized with pentobarbital sodium (15 mg/kg IV), intubated, and mechanically ventilated with supplemental oxygen (Harvard Respirator; Amersham, Mass.) at 12 cycles/minute. The femoral artery was cannulated for MAP monitoring and blood sampling, and the femoral vein was cannulated for saline infusion. Through a left lateral flank incision, the left kidney was exposed and the ureter was cannulated for urine sampling. Supplemental nonhypotensive doses of pentobarbital were administered as needed during the study. After 60 minutes of equilibrium, a baseline clearance was performed. All clearances consisted of urine collection over 30 minutes. Arterial blood sampling and hemodynamic measurements were measured midway through each clearance. After the baseline clearance, MANP18 was infused with saline at a dose of 33 pmol peptide/kg/min. The peptide was infused for a total of 45 minutes, which included a 15-minute lead-in period followed by a 30-minute clearance. The peptide infusion was then discontinued, and four 30-minute clearances were performed (washout, recovery 1, recovery 2, and recovery 3).

pGC-B = target: T2, pGC-B (Homo sapiens, UniProt P20594); experiment: cGMP generation in HEK293 cells overexpressing pGC-B; assay type: cell-based; settings: 10^−6 M, 10^−8 M, or 10^−10 M peptide for 10 minutes, FIG. 7B
T2 construct: host or cells: HEK293
T2 sequence (P20594 23-1047): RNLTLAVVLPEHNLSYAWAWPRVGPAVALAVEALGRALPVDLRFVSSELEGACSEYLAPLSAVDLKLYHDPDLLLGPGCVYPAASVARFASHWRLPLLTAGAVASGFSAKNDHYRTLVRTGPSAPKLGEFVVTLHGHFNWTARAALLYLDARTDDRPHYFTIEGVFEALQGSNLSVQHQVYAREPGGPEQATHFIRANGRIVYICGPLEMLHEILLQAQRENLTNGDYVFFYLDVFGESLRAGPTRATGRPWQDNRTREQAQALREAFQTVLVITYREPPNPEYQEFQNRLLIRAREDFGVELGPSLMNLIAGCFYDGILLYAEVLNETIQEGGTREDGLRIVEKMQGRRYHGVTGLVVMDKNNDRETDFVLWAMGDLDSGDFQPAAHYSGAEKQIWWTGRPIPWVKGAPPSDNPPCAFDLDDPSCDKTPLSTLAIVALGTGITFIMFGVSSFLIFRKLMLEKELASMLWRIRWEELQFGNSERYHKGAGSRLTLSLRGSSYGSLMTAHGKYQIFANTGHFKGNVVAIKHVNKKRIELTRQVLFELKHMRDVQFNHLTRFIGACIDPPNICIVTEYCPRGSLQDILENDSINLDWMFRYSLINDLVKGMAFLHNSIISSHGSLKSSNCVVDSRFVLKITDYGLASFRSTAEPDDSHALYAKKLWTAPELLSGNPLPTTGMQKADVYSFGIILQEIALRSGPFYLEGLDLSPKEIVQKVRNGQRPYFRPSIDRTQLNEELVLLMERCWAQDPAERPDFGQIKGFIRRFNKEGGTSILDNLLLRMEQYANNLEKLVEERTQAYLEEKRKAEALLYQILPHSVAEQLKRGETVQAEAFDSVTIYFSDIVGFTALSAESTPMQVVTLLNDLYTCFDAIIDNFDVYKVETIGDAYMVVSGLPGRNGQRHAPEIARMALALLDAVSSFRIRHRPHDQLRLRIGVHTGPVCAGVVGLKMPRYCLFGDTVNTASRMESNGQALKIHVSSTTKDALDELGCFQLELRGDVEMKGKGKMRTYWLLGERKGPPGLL
Protocol: as §1, with “minutes. After treatment, the cells were lysed in 300 ul 6% ice cold TCA and sonicated for 10 minutes, and the cell lysates were then centrifuged at 4° C., 12,000 g for 10 minutes.” for “minutes.”

[2] = infusion of a high dose, compared to high dose of ANP

In the case of “SLRRSSCFGGRMDRIGAQSGLGCNSFRY (listed as Homo sapiens) [ANP, endogenous human mature atrial natriuretic peptide]”, the “glomerular filtration rate (GFR)” value (normal dogs; infusion of a low dose) is listed as “No change” and the “mean arterial pressure (MAP)” value (normal dogs; infusion of a low dose) is listed as “No change”.

For “SLRRSSCFGGRMDRIGAQSGLGCNSFRYRITAREDKQGWA (listed as Homo sapiens) [MANP]”, the “diuretic and natriuretic effects compared with ANP” value (normal dogs) is given as “greater diuretic and natriuretic effects than ANP”, the “glomerular filtration rate (GFR)” value (normal dogs; [2]) is given as “increased GFR” and the “mean arterial pressure (MAP)” value (normal dogs; [2]) is given as “decreased MAP”. The “glomerular filtration rate (GFR)” value (normal dogs; infusion of a low dose) was “No change”, the “mean arterial pressure (MAP)” value (normal dogs; infusion of a low dose) was “No change” and the “effect on renal blood flow compared with ANP” value (normal dogs; low dose) was “greater effect than low dose ANP”. For the same substance, the “BP (mean arterial pressure)” value ([1]; FIG. 2A) was “reduced BP”, the “plasma cGMP generation” value ([1]; FIG. 2B) was “increased” and the “urinary cGMP generation” value ([1]; FIG. 2C) was “increased”. The “natriuresis (distal tubule sodium reabsorption, urinary sodium excretion)” value ([1]; FIGS. 2D and 2E) was “induced natriuresis”.

For “SLRRSSDformCFGGRMDRIGAQSGLGCNSFRYRITAREDKQGWA (SLRRS[dS]CFGGRMDRIGAQSGLGCNSFRYRITAREDKQGWA; disulfide 7-23 (inferred)) [MANP18, MANP with D-serine at the sixth position]”, the “Potency vs. MANP” value (pGC-A; intracellular cGMP generation, peptide 10^−8 M, HEK293 overexpressing pGC-A) was “=”, the “blood pressure (mean arterial pressure)” value (normal canine; 33 pmol peptide/kg/min infused 45 minutes, FIG. 5A) was “blood pressure lowering” and the cardiac output (normal canine; 33 pmol peptide/kg/min infused 45 minutes, FIG. 5D) was “cardiac output enhancing”. The “natriuretic action (urinary sodium excretion)” value (normal canine; 33 pmol peptide/kg/min infused 45 minutes, FIG. 5G) was “natriuretic actions”, the plasma aldosterone levels (normal canine; 33 pmol peptide/kg/min, FIG. 6E) was “temporarily depressed” and the “plasma renin activity (PRA)” value (normal canine; 33 pmol peptide/kg/min, FIG. 6F) was “temporarily depressed”. For the same substance, the “plasma angiotensin II levels (ANGII)” value (normal canine; 33 pmol peptide/kg/min, FIG. 6G) was “temporarily depressed”, the “cGMP (plasma cGMP levels, urinary cGMP excretion)” value (normal canine; 33 pmol peptide/kg/min, FIGS. 6A and 6B) was “activated cGMP” and the “ANP levels (plasma ANP, urinary ANP excretion)” value (normal canine; 33 pmol peptide/kg/min, FIGS. 6C and 6D) was “temporarily increased”.

For “SWLRRSSCFGGRMDRI GAQSGLGCNSFRYRITA REDKQGWA (SWLRRSSCFGGRMDRIGAQSGLGCNSFRYRITAREDKQGWA) [MANP2W, MANP variant having a tryptophan substitution for the leucine at position 2 of MANP]”, the “pGC-B activation (cGMP generation)” value (pGC-B) was “did not activate pGC-B” and the “pGC-A activation (cGMP generation)” value (pGC-A; 10^−6 M, 10^−8 M, or 10^−10 M peptide for 10 minutes, FIG. 7A) was “selectively activated pGC-A”.
